Experimental data reported in BigSolDB 2.1.

In the case of `O=C(O)/C=C/C(=O)O`, the solubility (mole fraction) (in acetone, 279 K) was 0.00344, the solubility (mole fraction) (in acetone, 285 K) was 0.00419 and the solubility (mole fraction) (in acetone, 291 K) was 0.00498. The solubility (mole fraction) (in acetone, 297 K) was 0.00583, the solubility (mole fraction) (in acetone, 303 K) was 0.00673 and the solubility (mole fraction) (in acetone, 309 K) was 0.00768. For the same molecule, the solubility (mole fraction) (in acetone, 315 K) was 0.00867, the solubility (mole fraction) (in acetone, 321 K) was 0.00972 and the solubility (mole fraction) (in acetone, 327 K) was 0.0108. It also gave a solubility (mole fraction) (in acetone, 333 K) of 0.012, a solubility (mole fraction) (in ethanol, 279 K) of 0.0126 and a solubility (mole fraction) (in ethanol, 285 K) of 0.014. It also gave a solubility (mole fraction) (in ethanol, 291 K) of 0.0157, a solubility (mole fraction) (in ethanol, 297 K) of 0.0178 and a solubility (mole fraction) (in ethanol, 303 K) of 0.0205. It also gave a solubility (mole fraction) (in ethanol, 309 K) of 0.0233, a solubility (mole fraction) (in ethanol, 315 K) of 0.0267 and a solubility (mole fraction) (in ethanol, 321 K) of 0.0305. The solubility (mole fraction) (in ethanol, 327 K) was 0.0344, the solubility (mole fraction) (in ethanol, 333 K) was 0.0383 and the solubility (mole fraction) (in ethanol, 343 K) was 0.0451. For the same molecule, the solubility (mole fraction) (in isopropanol, 279 K) was 0.0109, the solubility (mole fraction) (in isopropanol, 285 K) was 0.0138 and the solubility (mole fraction) (in isopropanol, 291 K) was 0.0169. It also gave a solubility (mole fraction) (in isopropanol, 297 K) of 0.0202, a solubility (mole fraction) (in isopropanol, 303 K) of 0.0236 and a solubility (mole fraction) (in isopropanol, 309 K) of 0.0272. For the same molecule, the solubility (mole fraction) (in isopropanol, 315 K) was 0.031, the solubility (mole fraction) (in isopropanol, 321 K) was 0.0349 and the solubility (mole fraction) (in isopropanol, 327 K) was 0.0391. For the same molecule, the solubility (mole fraction) (in isopropanol, 333 K) was 0.0435, the solubility (mole fraction) (in isopropanol, 342 K) was 0.0538 and the solubility (mole fraction) (in isopropanol, 351 K) was 0.0656. The solubility (mole fraction) (in n-propanol, 279 K) was 0.00847, the solubility (mole fraction) (in n-propanol, 285 K) was 0.0103 and the solubility (mole fraction) (in n-propanol, 291 K) was 0.0122. It also gave a solubility (mole fraction) (in n-propanol, 297 K) of 0.0143, a solubility (mole fraction) (in n-propanol, 303 K) of 0.0165 and a solubility (mole fraction) (in n-propanol, 309 K) of 0.0189. For the same molecule, the solubility (mole fraction) (in n-propanol, 315 K) was 0.0215, the solubility (mole fraction) (in n-propanol, 321 K) was 0.0243 and the solubility (mole fraction) (in n-propanol, 327 K) was 0.0274. For the same molecule, the solubility (mole fraction) (in n-propanol, 333 K) was 0.0306, the solubility (mole fraction) (in n-propanol, 339 K) was 0.0355 and the solubility (mole fraction) (in n-propanol, 345 K) was 0.0398. It also gave a solubility (mole fraction) (in n-propanol, 351.8 K) of 0.0486, a solubility (mole fraction) (in water, 279 K) of 0.000136 and a solubility (mole fraction) (in water, 285 K) of 0.000435. It also gave a solubility (mole fraction) (in water, 291 K) of 0.000813, a solubility (mole fraction) (in water, 297 K) of 0.00125 and a solubility (mole fraction) (in water, 303 K) of 0.00171. For the same molecule, the solubility (mole fraction) (in water, 309 K) was 0.00221, the solubility (mole fraction) (in water, 315 K) was 0.00265 and the solubility (mole fraction) (in water, 321 K) was 0.00328. The solubility (mole fraction) (in water, 327 K) was 0.00415, the solubility (mole fraction) (in water, 333 K) was 0.00541 and the solubility (mole fraction) (in water, 339 K) was 0.00624. The solubility (mole fraction) (in water, 353 K) was 0.00884.
